Consider 28 molecules from patent US20100009970A1, “COMPOSITIONS AND METHODS FOR TREATMENT OF VIRAL DISEASES” (Combinatorx (Singapore) Pte. Ltd., priority 2008, published 2010).

One data set can be described thus: in vitro. The settings on record: human.
Data set [1] relates to Huh7 cells expressing a subgenomic RNA replicon of Con1 (genotype 1b) sequence origin. Description: microbe, parasite or virus in culture. Conditions: Hepatitis C virus; for IC50: Huh-7, read-out: IC50 (uM) [SG].
The mark [2] stands for this setting: Huh-7, read-out: Max Effect@CC30 (inhibition).

Each structure is given as a SMILES string. pIC50: −log10 of the molar value. Where two headings read alike, the source gives them in different places.

One may read the IC90 as the point of the concentration-response curve where the effect stands at 90%. A high value points to a need for much substance. By IC50 is commonly meant the concentration needed to halve the response being measured. Take `CSc1ccc(Oc2ccc(S(N)(=O)=O)cc2CN2CCN(C3CCN(C)CC3)CC2)cc1C` [Compound 90, 4-(3-methyl-4-(methylthio)phenoxy)-3-((4-(1-methylpiperidin-4-yl)piperazin-1-yl)methyl)benzenesulfonamide]: the CC50 in the data set “in vitro” (CC50 (uM) [SG]) amounted to 9.1 µM. The molecule further showed an IC90 in data set [1] (Huh-7) of 7.48 µM. Moreover, the IC50 in data set [1] amounted to 2.03 µM.

In the case of `CN(CCO)[C@H]1CC[C@@H](c2ccc(Cl)c(Cl)c2)c2ccccc21` [N-Ethanol Sertraline, 2-(((1S,4S)-4-(3,4-dichlorophenyl)-1,2,3,4-tetrahydronaphthalen-1-yl)(methyl)amino)ethanol], the CC50 in “in vitro” (CC50 (uM) [SG]) came to 49.8 µM. Moreover, in data set [1] (Huh-7), the 90% effect concentration (IC90) amounted to 21.9 µM. Further, in data set [1], the IC50 stood at 7.8 µM. Besides, in data set [1] (setting [2]), the Emax worked out at 93%.

In the case of `CC(=O)Nc1ccc2c(c1)[C@@H](N(C)CCO)CC[C@H]2c1ccc(Cl)c(Cl)c1` [N-((5S,8S)-5-(3,4-dichlorophenyl)-8-((2-hydroxyethyl)(methyl)amino)-5,6,7,8-tetrahydronaphthalen-2-yl)acetamide], in “in vitro” (CC50 (uM) [SG]), the CC50 was determined as 44.9 µM. Moreover, in data set [1], the IC50 came to 13.2 µM.

For the molecule `CNCc1ccccc1Oc1ccc(SC)c(C)c1` [Compound 30, N-methyl-1-(2-(3-methyl-4-(methylthio)phenoxy)phenyl)methanamine], the CC50 in “in vitro” (CC50 (uM) [SG]) was found to be 26.4 µM. In addition, in data set [1], the concentration for half-maximal inhibition (IC50) was 13.2 µM. The Emax in data set [1] (setting [2]) came out at 26%.

In turn, `CN[C@H]1CC[C@@H](c2ccc(Cl)c(Cl)c2)c2ccc(NS(=O)(=O)c3cn(C)cn3)cc21` [N-((5S,8S)-5-(3,4-dichlorophenyl)-8-(methylamino)-5,6,7,8-tetrahydronaphthalen-2-yl)-1-methyl-1H-imidazole-4-sulfonamide] registered a CC50 in the data set “in vitro” (CC50 (uM) [SG]) of 13.6 µM. The IC50 in data set [1] worked out at 7.76 µM. In addition, the Emax in data set [1] (setting [2]) worked out at 20.2%.

With `CN(C)[C@H]1CC[C@@H](c2ccc(Cl)c(Cl)c2)c2ccc(C(=O)NCC3CC3)cc21` [(5S,8S)—N-(cyclopropylmethyl)-5-(3,4-dichlorophenyl)-8-(dimethylamino)-5,6,7,8-tetrahydronaphthalene-2-carboxamide], the CC50 in “in vitro” (CC50 (uM) [SG]) amounted to 19.4 µM. Moreover, the IC90 in data set [1] (Huh-7) was 12.2 µM. In data set [1], the IC50 was 5.61 µM.

In “in vitro” (CC50 (uM) [SG]), `CNCc1ccccc1Oc1ccc(C(F)(F)F)cc1` [Compound 39, N-methyl-1-(2-(4-(trifluoromethyl)phenoxy)phenyl)methanamine] gave a CC50 above 50 µM. The IC90 in data set [1] (Huh-7) is 50 µM. Besides, the IC50 in data set [1] came to 37.5 µM. Moreover, the Emax in data set [1] (setting [2]) worked out at 91.7%.

On to `CSc1ccc(Oc2ccc(S(N)(=O)=O)cc2CN(C)CCO)cc1C` [Compound 2, 3-(((2-hydroxyethyl)(methyl)amino)methyl)-4-(3-methyl-4-(methylthio)phenoxy)benzenesulfonamide], for which the CC50 in “in vitro” (CC50 (uM) [SG]) was above 50 µM. In data set [1] (Huh-7), this molecule came in with a 90% effect concentration (IC90) of 20.1 µM. Further, the IC50 in data set [1] is 5.58 µM.

Usually pIC50 stands for −log10 of the IC50, conventionally taken in molar units. A higher pIC50 goes with a low IC50. Turning to `CSc1ccc(Oc2ccc(S(N)(=O)=O)cc2CN(C)C)cc1` [Compound 46, 3-((dimethylamino)methyl)-4-(4-(methylthio)phenoxy)benzenesulfonamide], the CC50 in the data set “in vitro” (CC50 (uM)) and in “in vitro” (CC50 (uM) [SG]) was above 50 µM in each case. The molecule further showed a pIC50 in data set [1] (Huh-7) of 4.58. Moreover, the IC90 in data set [1] (Huh-7) is 60.9 µM. Moreover, the IC50 in data set [1] was 26.3 µM. For the same molecule, the Emax in data set [1] (Huh-7, read-out: Max Effect @CC30 (inhibition)) was found to be 83.2%; in data set [1] (setting [2]), 83.2%.

In the case of `CSc1ccc(Oc2ccc(S(N)(=O)=O)cc2CO)cc1C` [Compound 47, 3-(hydroxymethyl)-4-(3-methyl-4-(methylthio)phenoxy)benzenesulfonamide], the CC50 in the data set “in vitro” (CC50 (uM)) and in “in vitro” (CC50 (uM) [SG]) was above 50 µM in each case. Moreover, the pIC50 in data set [1] (Huh-7) was 4.74. Moreover, the IC50 in data set [1] is 18.1 µM. Besides, the Emax in data set [1] (setting [2]) was found to be 63.5%.

Take `CCCCNS(=O)(=O)c1ccc(Oc2ccc(SC)c(C)c2)c(CN(C)C)c1` [Compound 12, N-butyl-3-((dimethylamino)methyl)-4-(3-methyl-4-(methylthio)phenoxy)benzenesulfonamide]: the CC50 in “in vitro” (CC50 (uM) [SG]) worked out at 18.4 µM. The IC50 in data set [1] amounted to 13.4 µM.

As for `CSc1ccc(Oc2ccc(S(N)(=O)=O)cc2CN2CCC(N3CCOCC3)CC2)cc1C` [Compound 89, 4-(3-methyl-4-(methylthio)phenoxy)-3-((4-morpholinopiperidin-1-yl)methyl)benzenesulfonamide], in the data set “in vitro” (CC50 (uM) [SG]), the CC50 was above 50 µM. The molecule also yielded an IC90 in data set [1] (Huh-7) of 21.3 µM. For the same molecule, the IC50 in data set [1] worked out at 6.62 µM.

On to `CN[C@H]1CC[C@@H](c2ccc(Cl)c(Cl)c2)c2ccc(C(=O)NCC(=O)OC)cc21` [methyl 2-((1S,4S)-1-(3,4-dichlorophenyl)-4-(methylamino)-1,2,3,4-tetrahydronaphthalene-6-carboxamido)acetate], for which the CC50 in the data set “in vitro” (CC50 (uM) [SG]) worked out at 22.9 µM. The IC50 in data set [1] came out at 6.69 µM.

On to `CSc1ccc(Oc2ccc(S(N)(=O)=O)cc2CN2CCN(C)CC2)cc1C` [Compound 63, 4-(3-methyl-4-(methylthio)phenoxy)-3-((4-methylpiperazine-1-yl)methyl)benzenesulfonamide], for which, in the data set “in vitro” (CC50 (uM) [SG]), the CC50 is above 50 µM. In data set [1] (Huh-7), the 90% effect concentration (IC90) worked out at 10.5 µM. Moreover, the half-inhibitory concentration (IC50) in data set [1] stood at 4.82 µM.

On to `CN(CCO)[C@H]1CC[C@@H](c2ccc(Cl)c(Cl)c2)c2ccc(C[S+](C)[O-])cc21` (stereo partly drawn) [2-(((1S,4S)-4-(3,4-dichlorophenyl)-7-(methylsulfinylmethyl)-1,2,3,4-tetrahydronaphthalen-1-yl)(methyl)amino)ethanol], for which the CC50 in “in vitro” (CC50 (uM) [SG]) was above 50 µM. In addition, the IC50 in data set [1] is 24.2 µM.

On to `CSc1ccc(Oc2ccc(S(N)(=O)=O)cc2CN2CCC[C@@H]2CO)cc1C` [Compound 102, (R)-3-((2-(hydroxymethyl)pyrrolidin-1-yl)methyl)-4-(3-methyl-4-(methylthio)phenoxy)benzenesulfonamide], for which the CC50 in “in vitro” (CC50 (uM) [SG]) was above 50 µM. In addition, the 90% effect level in data set [1] (Huh-7) (IC90) was put at 17.6 µM. For the same molecule, the IC50 in data set [1] came out at 6.76 µM.

The molecule `CSc1ccc(Oc2ccc(S(N)(=O)=O)cc2CN2CC[C@H](F)C2)cc1C` [Compound 85, (S)-3-((3-fluoropyrrolidin-1-yl)methyl)-4-(3-methyl-4-(methylthio)phenoxy)benzenesulfonamide] displayed a CC50 in “in vitro” (CC50 (uM) [SG]) above 50 µM. For the same molecule, the IC50 in data set [1] was 7.22 µM.

Molecule `CC(C)C1CC[C@@H](c2ccc(Cl)c(Cl)c2)c2ccc(C(N)=O)cc21` (stereo partly drawn) [Isopropyl Sertraline A-Ring Carboxamide, (S)-5-(3,4-dichlorophenyl)-8-isopropyl-5,6,7,8-tetrahydronaphthalene-2-carboxamide] returned a CC50 in the data set “in vitro” (CC50 (uM) [SG]) above 50 µM. Also, the IC50 in data set [1] was 38.9 µM.

In the data set “in vitro” (CC50 (uM)), `CN[C@H]1CC[C@@H](c2ccc(Cl)c(Cl)c2)c2ccc(N(C)C)cc21` [Sertraline A-Ring N,N-Dimethylamine, (1S,4S)-4-(3,4-dichlorophenyl)-N1,N7,N7-trimethyl-1,2,3,4-tetrahydronaphthalene-1,7-diamine] showed a CC50 of 6.22 µM. This molecule displayed a CC50 in “in vitro” (CC50 (uM) [SG]) of 6.22 µM. In data set [1] (Huh-7), this molecule showed a pIC50 of 5.45 and an IC90 of 5.82 µM. The IC50 in data set [1] was 3.52 µM. Also, the Emax in data set [1] (setting [2]) is 35.1%.

Consider `CN[C@H]1CC[C@@H](c2ccc(Cl)c(Cl)c2)c2ccc(I)cc21` [Sertraline Iodide, (1S,4S)-4-(3,4-dichlorophenyl)-7-iodo-N-methyl-1,2,3,4-tetrahydronaphthalen-1-amine], for which the CC50 in “in vitro” (CC50 (uM)) and in the data set “in vitro” (CC50 (uM) [SG]) was 8.92 µM each time. Also, the Emax is 25% in data set [1] (GETYPE1B, Huh-7, 72 h, read-out: Max Effect @CC30 (inhibition)) and 25% in data set [1] (setting [2]). Moreover, in data set [1] (Huh-7, 72 h), the pIC50 was 5.18. Besides, the concentration for half-maximal inhibition (IC50) in data set [1] was 6.57 µM.

`CC(=O)NCc1ccc2c(c1)[C@@H](N(C)C)CC[C@H]2c1ccc(Cl)c(Cl)c1` [N-(((5S,8S)-5-(3,4-dichlorophenyl)-8-(dimethylamino)-5,6,7,8-tetrahydronaphthalen-2-yl)methyl)acetamide]: the CC50 in “in vitro” (CC50 (uM) [SG]) stood at 19.1 µM. For the same molecule, it took 9.72 µM to reach the 90% level in data set [1] (Huh-7) (IC90). The IC50 in data set [1] stood at 4.45 µM. Also, in data set [1] (setting [2]), the Emax came to 92%.

`CNCc1ccccc1Oc1ccc(SC)cc1` [Compound 33, N-methyl(2-(4-(methylthio)phenoxy)phenyl)methanamine] yielded a CC50 in “in vitro” (CC50 (uM) [SG]) above 50 µM. In addition, the IC50 in data set [1] was determined as 30.2 µM. The Emax in data set [1] (setting [2]) was 72.3%.

Molecule `CSc1ccc(Oc2ccc(S(N)(=O)=O)cc2C=C(C)C)cc1C` [Compound 86, 4-(3-methyl-4-(methylthio)phenoxy)-3-(2-methylprop-1-enyl)benzenesulfonamide] gave a CC50 in “in vitro” (CC50 (uM) [SG]) above 50 µM. For the same molecule, the IC50 in data set [1] turned out to be 34.8 µM.

On to `CSc1ccc(N2CN(C)Cc3cc(Br)ccc32)cc1C` [Compound 78, 6-bromo-3-methyl-1-(3-methyl-4-(methylthio)phenyl)-1,2,3,4-tetrahydroquinazoline], for which the CC50 in “in vitro” (CC50 (uM) [SG]) stood at 24.9 µM. Besides, in data set [1] (Huh-7), it took 15.5 µM to reach the 90% level (IC90). Besides, the IC50 in data set [1] worked out at 13.7 µM.

The molecule `CN(C)[C@H]1CC[C@@H](c2ccc(Cl)c(Cl)c2)c2ccc(NC(=O)c3ccccc3)cc21` [N-((5S,8S)-5-(3,4-dichlorophenyl)-8-(dimethylamino)-5,6,7,8-tetrahydronaphthalen-2-yl)benzamide] returned a CC50 in “in vitro” (CC50 (uM) [SG]) of 12.5 µM. In addition, the IC50 in data set [1] was determined as 9.41 µM.

Turning to `CSc1ccc(Nc2ccc(S(N)(=O)=O)cc2CN(C)C)cc1C` [Compound 108, 3-((dimethylamino)methyl)-4-(3-methyl-4-(methylthio)phenylamino)benzensulfonamide], the CC50 in the data set “in vitro” (CC50 (uM) [SG]) came to 44.9 µM. The IC90 in data set [1] (Huh-7) stood at 17 µM. Further, the IC50 in data set [1] was determined as 2.64 µM.

The molecule `CSc1ccc(Oc2cc(Br)ccc2CN(C)C)cc1C` [Compound 60, 1-(4-bromo-2-(3-methyl-4-(methylthio)phenoxy)phenyl)-N,N-dimethylmethanamine] came in with a CC50 in the data set “in vitro” (CC50 (uM) [SG]) of 28.7 µM. For the same molecule, the IC50 in data set [1] was 12.6 µM.

The molecule `CNCc1cc(Br)ccc1Oc1ccc(SC)cc1` [Compound 34, (5-bromo-2-(4-(methylthio)phenoxy)phenyl)-N-methylmethanamine] gave a CC50 in the data set “in vitro” (CC50 (uM) [SG]) of 35.5 µM. In addition, the 50% inhibitory concentration (IC50) in data set [1] turned out to be 24.6 µM. Besides, the Emax in data set [1] (setting [2]) was found to be 72.6%.
